According to ChEMBL document CHEMBL1909046, “DrugMatrix in vitro pharmacology data”:

Assays:
[1] = DRUGMATRIX: ATPase, Na+/K+ enzyme inhibition (substrate: ATP); assay type: tissue-based, Sus scrofa, Heart; settings: Not Active = under 50% inhibition at 10 µM
Melanocortin receptor 5 = Melanocortin receptor 5 (Homo sapiens, UniProt P33032); assay type: cell membranes, HEK293, Membrane; settings: hek293; further: in other assays of this panel Not Active means under 50% inhibition at 10 µM
[2] = target: T1, Muscarinic acetylcholine receptor M5 (Homo sapiens, UniProt P08912); assay type: cell membranes, Membrane; settings: cho-k1; further: in other assays of this panel Not Active means under 50% inhibition at 10 µM
T1 sequence (P08912 whole entry): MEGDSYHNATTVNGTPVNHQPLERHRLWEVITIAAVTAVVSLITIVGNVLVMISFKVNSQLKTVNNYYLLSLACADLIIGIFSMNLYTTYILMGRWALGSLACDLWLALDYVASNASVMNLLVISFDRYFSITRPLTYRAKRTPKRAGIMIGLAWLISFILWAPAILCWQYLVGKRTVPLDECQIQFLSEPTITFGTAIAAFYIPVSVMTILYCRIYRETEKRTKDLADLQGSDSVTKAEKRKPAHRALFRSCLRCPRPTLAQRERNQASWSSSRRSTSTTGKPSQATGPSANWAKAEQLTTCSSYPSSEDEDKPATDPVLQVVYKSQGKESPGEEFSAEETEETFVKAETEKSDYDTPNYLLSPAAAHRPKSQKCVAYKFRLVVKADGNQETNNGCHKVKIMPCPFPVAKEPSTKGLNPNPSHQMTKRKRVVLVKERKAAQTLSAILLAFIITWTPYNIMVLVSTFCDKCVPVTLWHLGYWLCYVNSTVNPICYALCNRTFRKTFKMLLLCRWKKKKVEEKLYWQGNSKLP

[3] = target: T2, Neuropeptide Y receptor type 1 (Homo sapiens, UniProt P25929); assay type: cell membranes, Membrane; settings: sk-n-mc; further: in other assays of this panel Not Active means under 50% inhibition at 10 µM
T2 sequence (P25929 whole entry): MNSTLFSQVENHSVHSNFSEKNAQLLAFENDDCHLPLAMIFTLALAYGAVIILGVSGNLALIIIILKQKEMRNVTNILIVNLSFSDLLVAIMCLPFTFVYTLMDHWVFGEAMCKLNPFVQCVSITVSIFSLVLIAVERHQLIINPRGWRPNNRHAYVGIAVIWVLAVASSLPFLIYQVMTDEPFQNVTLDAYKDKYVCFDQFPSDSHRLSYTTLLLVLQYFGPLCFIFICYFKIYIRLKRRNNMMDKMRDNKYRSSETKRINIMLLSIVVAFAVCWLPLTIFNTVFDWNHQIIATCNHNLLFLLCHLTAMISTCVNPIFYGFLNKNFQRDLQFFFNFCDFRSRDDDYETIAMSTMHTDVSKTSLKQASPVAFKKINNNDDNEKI

[4] = target: Delta-type opioid receptor (Homo sapiens, UniProt P41143); assay type: cell membranes, HEK293, Membrane; settings: hek293; further: in other assays of this panel Not Active means under 50% inhibition at 10 µM
Delta-type opioid receptor, sequence (P41143 whole entry): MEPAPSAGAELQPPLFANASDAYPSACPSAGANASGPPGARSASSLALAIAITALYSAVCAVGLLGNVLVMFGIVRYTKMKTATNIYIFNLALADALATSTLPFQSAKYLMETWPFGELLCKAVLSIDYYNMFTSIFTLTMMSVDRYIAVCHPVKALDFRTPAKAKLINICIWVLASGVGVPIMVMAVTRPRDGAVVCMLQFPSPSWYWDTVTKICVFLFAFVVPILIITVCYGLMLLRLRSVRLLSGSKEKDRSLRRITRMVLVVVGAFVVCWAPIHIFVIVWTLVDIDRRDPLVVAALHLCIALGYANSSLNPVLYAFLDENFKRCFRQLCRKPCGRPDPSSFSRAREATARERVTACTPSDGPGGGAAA

[5] = target: Mitogen-activated protein kinase 3 (Homo sapiens, UniProt P27361); assay: DRUGMATRIX: Protein Serine/Threonine Kinase, ERK1 enzyme inhibition (substrate: Myelin Basic Protein); set-up: species or system Escherichia coli; settings: Not Active = under 50% inhibition at 10 µM
Mitogen-activated protein kinase 3, sequence (P27361 whole entry): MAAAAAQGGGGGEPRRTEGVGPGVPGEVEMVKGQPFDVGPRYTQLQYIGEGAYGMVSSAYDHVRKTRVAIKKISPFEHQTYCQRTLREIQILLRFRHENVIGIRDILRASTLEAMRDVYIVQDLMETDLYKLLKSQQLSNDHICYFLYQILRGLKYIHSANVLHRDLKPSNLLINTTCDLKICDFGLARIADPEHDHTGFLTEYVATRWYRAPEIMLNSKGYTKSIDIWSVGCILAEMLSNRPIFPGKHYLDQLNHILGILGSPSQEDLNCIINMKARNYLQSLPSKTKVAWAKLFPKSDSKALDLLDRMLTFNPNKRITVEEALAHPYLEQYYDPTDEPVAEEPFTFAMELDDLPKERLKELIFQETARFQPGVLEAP

[6] = target: T3, Receptor-type tyrosine-protein phosphatase C (Homo sapiens, UniProt P08575); set-up: species or system Escherichia coli
T3 sequence (P08575 whole entry): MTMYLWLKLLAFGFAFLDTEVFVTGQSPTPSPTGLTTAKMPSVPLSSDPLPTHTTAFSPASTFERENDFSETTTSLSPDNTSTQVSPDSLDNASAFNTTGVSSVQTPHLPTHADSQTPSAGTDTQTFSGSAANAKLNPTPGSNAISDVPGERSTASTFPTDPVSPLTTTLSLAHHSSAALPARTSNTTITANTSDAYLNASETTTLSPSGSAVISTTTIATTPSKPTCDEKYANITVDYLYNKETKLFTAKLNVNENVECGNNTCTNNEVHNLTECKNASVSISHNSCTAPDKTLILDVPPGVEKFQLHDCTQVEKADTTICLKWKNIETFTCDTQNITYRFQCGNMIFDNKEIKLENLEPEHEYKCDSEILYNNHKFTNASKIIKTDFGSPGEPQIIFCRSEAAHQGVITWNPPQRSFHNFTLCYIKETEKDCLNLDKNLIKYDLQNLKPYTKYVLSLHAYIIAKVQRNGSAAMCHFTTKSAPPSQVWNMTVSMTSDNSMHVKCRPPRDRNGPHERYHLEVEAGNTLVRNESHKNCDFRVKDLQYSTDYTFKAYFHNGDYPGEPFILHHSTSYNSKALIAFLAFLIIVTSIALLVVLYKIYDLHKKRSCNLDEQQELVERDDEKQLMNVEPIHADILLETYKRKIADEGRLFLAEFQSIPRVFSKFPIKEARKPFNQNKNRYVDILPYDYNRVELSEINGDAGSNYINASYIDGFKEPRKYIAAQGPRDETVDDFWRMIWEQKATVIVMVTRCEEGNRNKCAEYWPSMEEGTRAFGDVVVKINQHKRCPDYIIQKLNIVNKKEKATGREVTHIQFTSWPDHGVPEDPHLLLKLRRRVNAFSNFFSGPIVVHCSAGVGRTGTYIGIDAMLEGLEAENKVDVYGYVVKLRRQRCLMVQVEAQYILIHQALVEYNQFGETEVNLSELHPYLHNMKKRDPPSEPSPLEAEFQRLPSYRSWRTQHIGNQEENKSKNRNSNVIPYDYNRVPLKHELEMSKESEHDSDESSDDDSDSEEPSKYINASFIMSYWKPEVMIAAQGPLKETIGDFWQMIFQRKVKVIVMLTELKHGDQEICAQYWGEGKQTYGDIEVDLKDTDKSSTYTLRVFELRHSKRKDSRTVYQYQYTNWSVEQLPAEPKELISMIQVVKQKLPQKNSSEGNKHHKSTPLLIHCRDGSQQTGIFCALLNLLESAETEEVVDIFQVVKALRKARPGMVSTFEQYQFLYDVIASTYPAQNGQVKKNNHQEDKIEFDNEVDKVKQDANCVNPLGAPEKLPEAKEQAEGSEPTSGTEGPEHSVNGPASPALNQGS

Adenosine receptor A3 = target: T4, Adenosine receptor A3 (Homo sapiens, UniProt P0DMS8); assay type: cell membranes, CHO-K1, Membrane; settings: cho-k1
T4 sequence (P0DMS8 whole entry): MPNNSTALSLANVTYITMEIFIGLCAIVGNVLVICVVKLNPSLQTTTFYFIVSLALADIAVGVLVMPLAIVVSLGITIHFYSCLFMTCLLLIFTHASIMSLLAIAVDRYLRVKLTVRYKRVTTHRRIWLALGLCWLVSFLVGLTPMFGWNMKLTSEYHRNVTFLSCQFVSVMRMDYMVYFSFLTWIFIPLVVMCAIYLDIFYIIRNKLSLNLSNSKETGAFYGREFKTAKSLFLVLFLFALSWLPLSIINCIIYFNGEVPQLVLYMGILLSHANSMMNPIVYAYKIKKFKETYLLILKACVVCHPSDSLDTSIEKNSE

Melanocortin receptor 5, sequence (P33032 whole entry): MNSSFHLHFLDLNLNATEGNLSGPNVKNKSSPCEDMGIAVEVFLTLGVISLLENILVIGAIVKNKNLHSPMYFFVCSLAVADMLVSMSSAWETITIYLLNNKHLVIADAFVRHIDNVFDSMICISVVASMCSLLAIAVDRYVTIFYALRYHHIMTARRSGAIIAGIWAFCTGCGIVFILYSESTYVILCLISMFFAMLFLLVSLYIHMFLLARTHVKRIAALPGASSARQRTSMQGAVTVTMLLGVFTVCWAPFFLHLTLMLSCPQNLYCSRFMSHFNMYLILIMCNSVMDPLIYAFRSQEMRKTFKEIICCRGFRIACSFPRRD

Nn1nnc2ccccc21
Not Active: IC50 [1] | Ki [1] | IC50 (Melanocortin receptor 5) | IC50 [2] | IC50 [3] | IC50 [4] | IC50 [5] | IC50 [6] | IC50 (Adenosine receptor A3)

CC[C@]1(O)CC[C@H]2[C@@H]3CCC4=CCCC[C@@H]4[C@H]3CC[C@@]21C
Not Active: IC50 [1] | Ki [1] | IC50 (Melanocortin receptor 5) | IC50 [2] | IC50 [3] | IC50 [4] | IC50 [5] | IC50 [6] | IC50 (Adenosine receptor A3)

N[C@@H](Cc1ccc(F)cc1)C(=O)O
Not Active: IC50 [1] | Ki [1] | IC50 (Melanocortin receptor 5) | IC50 [2] | IC50 [3] | IC50 [4] | IC50 [5] | IC50 [6] | IC50 (Adenosine receptor A3)

CCOC(=O)[C@H](CCc1ccccc1)N[C@@H](C)C(=O)N1Cc2ccccc2C[C@H]1C(=O)O
Not Active: IC50 [1] | Ki [1] | IC50 (Melanocortin receptor 5) | IC50 [2] | IC50 [3] | IC50 [4] | IC50 [5] | IC50 [6] | IC50 (Adenosine receptor A3)

O=C(c1ccccc1Cl)N1CCC(Cc2ccccc2)CC1
Not Active: IC50 [1] | Ki [1] | IC50 (Melanocortin receptor 5) | IC50 [2] | IC50 [3] | IC50 [4] | IC50 [5] | IC50 [6] | IC50 (Adenosine receptor A3)

CCOC(=O)[C@H](CCc1ccccc1)N[C@@H](C)C(=O)N1CCC[C@H]1C(=O)O
Not Active: IC50 [1] | Ki [1] | IC50 (Melanocortin receptor 5) | IC50 [2] | IC50 [3] | IC50 [4] | IC50 [5] | IC50 [6] | IC50 (Adenosine receptor A3)

Clc1cc2c(cc1Cl)Oc1cc(Cl)c(Cl)cc1O2 [2,3,7,8-TETRACHLORODIBENZO-P-DIOXIN]
Not Active: IC50 [1] | Ki [1] | IC50 (Melanocortin receptor 5) | IC50 [2] | IC50 [3] | IC50 [4] | IC50 [5] | IC50 [6] | IC50 (Adenosine receptor A3)

C=C1/C(=C\C=C2/CCC[C@]3(C)[C@@H]([C@H](C)CCCC(C)C)CC[C@@H]23)C[C@@H](O)C[C@@H]1O [ALFACALCIDOL]
Not Active: IC50 [1] | Ki [1] | IC50 (Melanocortin receptor 5) | IC50 [2] | IC50 [3] | IC50 [4] | IC50 [5] | IC50 [6] | IC50 (Adenosine receptor A3)
